In patent US9474790B2, “Stable, protracted GLP-1/glucagon receptor co-agonists for medical use” (Novo Nordisk A/S, priority 2013, dated 2016):
Numbered stars: 1 amine (or outer) side, 2 acyl side, 3 side chain; on linkers, the order of the positions; unused ones are H or OH. Square brackets hold non-standard residues; d marks the D form. Side chains are listed from the residue outwards. Peptide text beside a SMILES is read from it. * marks the point of attachment. C18 diacid = O=C(O)CCCCCCCCCCCCCCCCC(=O)*; γGlu = O=C(O)[C@H](CCC(=O)[*:2])N[*:1]; Ac4c = NC1(C(=O)O)CCC1; AEEA = NCCOCCOCC(=O)O; Aib = CC(C)(N)C(=O)O

What follows are compounds tested against T1, human GLP-1 receptor (Homo sapiens, UniProt P43220) (assay: GLP-1 receptor binding, 125I-GLP-1 displacement SPA on isolated membranes). Conditions: displacement of 125I-GLP-1 from membranes; read-out: IC50 GLP-1R.
T1 construct: expressed in transfected cells; host or cells: BHK cells (parent BHKTS13), clone FCW467-12A/KZ10-1, with CRE luciferase
How it was run: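 Test derivatives, serially diluted, competed with 125I-GLP-1(7-36)NH2 for the human GLP-1 receptor on BHK membranes, read by WGA-bead scintillation proximity after 2 h at 30°C, pH 7.4 HEPES/EGTA/MgCl2 buffer. Final serum albumin was either ≤0.001% or 2.0%; IC50 from non-linear fit.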

T1 sequence (P43220 24-463): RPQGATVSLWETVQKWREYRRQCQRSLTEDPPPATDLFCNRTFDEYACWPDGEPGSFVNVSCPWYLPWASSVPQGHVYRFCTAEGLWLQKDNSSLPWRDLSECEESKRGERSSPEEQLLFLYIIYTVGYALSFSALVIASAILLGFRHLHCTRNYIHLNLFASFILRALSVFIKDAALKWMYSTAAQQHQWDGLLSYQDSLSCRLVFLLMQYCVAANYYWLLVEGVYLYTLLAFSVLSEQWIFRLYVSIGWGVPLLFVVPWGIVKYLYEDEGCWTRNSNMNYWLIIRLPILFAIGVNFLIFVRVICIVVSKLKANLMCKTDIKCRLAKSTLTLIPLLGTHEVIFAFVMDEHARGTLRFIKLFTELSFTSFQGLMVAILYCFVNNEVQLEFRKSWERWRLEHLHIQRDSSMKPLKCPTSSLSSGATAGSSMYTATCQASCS

| IC50 | Structure (SMILES) |
| --- | --- |
| 900 pM | CC(C)C[C@H](NC(=O)[C@H](Cc1ccc(O)cc1)NC(=O)[C@H](CCCCN)NC(=O)[C@H](CO)NC(=O)[C@H](CC(C)C)NC(=O)[C@H](CC(=O)O)NC(=O)[C@H](CO)NC(=O)[C@@H](NC(=O)[C@H](Cc1ccccc1)NC(=O)[C@@H](NC(=O)CNC(=O)[C@H](Cc1c[nH]cn1)NC(=O)C(C)(C)NC(=O)[C@@H](N)Cc1c[nH]cn1)[C@@H](C)O)[C@@H](C)O)C(=O)N[C@@H](CCC(=O)O)C(=O)N[C@@H](CO)C(=O)N[C@@H](CCCCN)C(=O)N[C@@H](CCCNC(=N)N)C(=O)N[C@@H](C)C(=O)N[C@@H](CCCNC(=N)N)C(=O)N[C@@H](CCC(=O)O)C(=O)N[C@@H](Cc1ccccc1)C(=O)N[C@H](C(=O)N[C@@H](CCC(N)=O)C(=O)N[C@@H](Cc1c[nH]c2ccccc12)C(=O)N[C@@H](CC(C)C)C(=O)N[C@@H](CC(C)C)C(=O)N[C@@H](CCCCNC(=O)CC[C@H](NC(=O)CC[C@H](NC(=O)COCCOCCNC(=O)COCCOCCNC(=O)CC[C@H](NC(=O)CCCCCCCCCCCCCCCCC(=O)O)C(=O)O)C(=O)O)C(=O)O)C(=O)N[C@H](C(N)=O)[C@@H](C)O)C(C)C [Example 27, N^ε28-[(4S)-4-carboxy-4-[[(4S)-4-carboxy-4-[[2-[2-[2-[[2-[2-[2-[[(4S)-4-carboxy-4-(17-carboxyheptadecanoylamino)butanoyl]amino]ethoxy]ethoxy]acetyl]amino]ethoxy]ethoxy]acetyl]amino]butanoyl]amino]butanoyl]-[Aib2,His3,Leu10,Glu15,Lys17,Arg20,Glu21,Leu27, Lys28]-Glucagon amide] (H-H[Aib]HGTFTSDLSKYLESKRAREFVQWLLK([γGlu-γGlu-AEEA-AEEA-γGlu-C18 diacid])T-NH2; N-terminus assumed) |
| 400 pM | CC(C)C[C@H](NC(=O)[C@H](CC(=O)O)NC(=O)[C@H](CC(C)C)NC(=O)[C@H](Cc1ccc(O)cc1)NC(=O)[C@H](CCCCN)NC(=O)[C@H](CO)NC(=O)[C@H](CC(C)C)NC(=O)[C@H](CC(=O)O)NC(=O)[C@H](CO)NC(=O)[C@@H](NC(=O)[C@H](Cc1ccccc1)NC(=O)[C@@H](NC(=O)CNC(=O)[C@H](CCC(N)=O)NC(=O)C1(NC(=O)[C@@H](N)Cc2c[nH]cn2)CCC1)[C@@H](C)O)[C@@H](C)O)C(=O)N[C@@H](CCCNC(=N)N)C(=O)N[C@@H](CCCNC(=N)N)C(=O)N[C@@H](C)C(=O)N[C@@H](CCCNC(=N)N)C(=O)N[C@@H](CC(=O)O)C(=O)N[C@@H](Cc1ccccc1)C(=O)N[C@H](C(=O)N[C@@H](CCC(N)=O)C(=O)N[C@@H](Cc1c[nH]c2ccccc12)C(=O)N[C@@H](CC(C)C)C(=O)N[C@@H](CC(C)C)C(=O)N[C@@H](CCCCNC(=O)CC[C@H](NC(=O)CC[C@H](NC(=O)COCCOCCNC(=O)COCCOCCNC(=O)CC[C@H](NC(=O)CC[C@H](NC(=O)CCCCCCCCCCCCCCCCC(=O)O)C(=O)O)C(=O)O)C(=O)O)C(=O)O)C(=O)N[C@H](C(N)=O)[C@@H](C)O)C(C)C [Example 45, N^ε28-[(4S)-4-carboxy-4-[[(4S)-4-carboxy-4-[[2-[2-[2-[[2-[2-[2-[[(4S)-4-carboxy-4-[[(4S)-4-carboxy-4-(17-carboxyheptadecanoylamino)butanoyl]amino]butanoyl]amino]ethoxy]ethoxy]acetyl]amino]ethoxy]ethoxy]acetyl]amino]butanoyl]amino]butanoyl]-[Acb2,Leu10,Leu16,Arg20,Leu27,Lys28]-Glucagon amide] (H-H[Ac4c]QGTFTSDLSKYLDLRRARDFVQWLLK([γGlu-γGlu-AEEA-AEEA-γGlu-γGlu-C18 diacid])T-NH2; N-terminus assumed) |
| 200 pM | CC(C)C[C@H](NC(=O)[C@H](CC(=O)O)NC(=O)[C@H](CC(C)C)NC(=O)[C@H](Cc1ccc(O)cc1)NC(=O)[C@H](CCCCN)NC(=O)[C@H](CO)NC(=O)[C@H](CC(C)C)NC(=O)[C@H](CC(=O)O)NC(=O)[C@H](CO)NC(=O)[C@@H](NC(=O)[C@H](Cc1ccccc1)NC(=O)[C@@H](NC(=O)CNC(=O)[C@H](CCC(N)=O)NC(=O)C1(NC(=O)[C@@H](N)Cc2c[nH]cn2)CCC1)[C@@H](C)O)[C@@H](C)O)C(=O)N[C@@H](CCCCN)C(=O)N[C@@H](CCCNC(=N)N)C(=O)N[C@@H](C)C(=O)N[C@@H](CCCNC(=N)N)C(=O)N[C@@H](CCC(=O)O)C(=O)N[C@@H](Cc1ccccc1)C(=O)N[C@H](C(=O)N[C@@H](CCC(N)=O)C(=O)N[C@@H](Cc1c[nH]c2ccccc12)C(=O)N[C@@H](CC(C)C)C(=O)N[C@@H](CC(C)C)C(=O)N[C@@H](CCCCNC(=O)CC[C@H](NC(=O)CC[C@H](NC(=O)COCCOCCNC(=O)COCCOCCNC(=O)CC[C@H](NC(=O)CC[C@H](NC(=O)CCCCCCCCCCCCCCCCC(=O)O)C(=O)O)C(=O)O)C(=O)O)C(=O)O)C(=O)N[C@H](C(N)=O)[C@@H](C)O)C(C)C [Example 47, N^ε28-[(4S)-4-carboxy-4-[[(4S)-4-carboxy-4-[[2-[2-[2-[[2-[2-[2-[[(4S)-4-carboxy-4-[[(4S)-4-carboxy-4-(17-carboxyheptadecanoylamino)butanoyl]amino]butanoyl]amino]ethoxy]ethoxy]acetyl]amino]ethoxy]ethoxy]acetyl]amino]butanoyl]amino]butanoyl]-[Acb2,Leu10,Leu16,Lys17,Arg20,Glu21,Leu27,Lys28]-Glucagon amide] (H-H[Ac4c]QGTFTSDLSKYLDLKRAREFVQWLLK([γGlu-γGlu-AEEA-AEEA-γGlu-γGlu-C18 diacid])T-NH2; N-terminus assumed) |
| 700 pM | CC(C)C[C@H](NC(=O)[C@H](Cc1c[nH]c2ccccc12)NC(=O)[C@H](CCC(N)=O)NC(=O)[C@@H](NC(=O)[C@H](Cc1ccccc1)NC(=O)[C@H](CCC(=O)O)NC(=O)[C@H](CCCNC(=N)N)NC(=O)[C@H](C)NC(=O)[C@H](CCCNC(=N)N)NC(=O)[C@H](CCCNC(=N)N)NC(=O)C(C)(C)NC(=O)[C@H](CC(=O)O)NC(=O)[C@H](CC(C)C)NC(=O)[C@H](Cc1ccc(O)cc1)NC(=O)[C@H](CCCCN)NC(=O)[C@H](CO)NC(=O)[C@H](CC(C)C)NC(=O)[C@H](CC(=O)O)NC(=O)[C@H](CO)NC(=O)[C@@H](NC(=O)[C@H](Cc1ccccc1)NC(=O)[C@@H](NC(=O)CNC(=O)[C@H](CCC(N)=O)NC(=O)C(C)(C)NC(=O)[C@@H](N)Cc1c[nH]cn1)[C@@H](C)O)[C@@H](C)O)C(C)C)C(=O)N[C@@H](CC(C)C)C(=O)N[C@@H](CCCCNC(=O)CC[C@H](NC(=O)CC[C@H](NC(=O)COCCOCCNC(=O)COCCOCCNC(=O)CC[C@H](NC(=O)CCCCCCCCCCCCCCCCC(=O)O)C(=O)O)C(=O)O)C(=O)O)C(=O)N[C@H](C(N)=O)[C@@H](C)O [Example 51, N^ε28-[(4S)-4-carboxy-4-[[(4S)-4-carboxy-4-[[2-[2-[2-[[2-[2-[2-[[(4S)-4-carboxy-4-(17-carboxyheptadecanoylamino)butanoyl]amino]ethoxy]ethoxy]acetyl]amino]ethoxy]ethoxy]acetyl]amino]butanoyl]amino]butanoyl]-[Aib2,Leu10,Aib16,Arg20,Glu21,Leu27,Lys28]-Glucagon amide] (H-H[Aib]QGTFTSDLSKYLD[Aib]RRAREFVQWLLK([γGlu-γGlu-AEEA-AEEA-γGlu-C18 diacid])T-NH2; N-terminus assumed) |
| 400 pM | CC(C)C[C@H](NC(=O)[C@H](CC(=O)O)NC(=O)[C@H](CC(C)C)NC(=O)[C@H](Cc1ccc(O)cc1)NC(=O)[C@H](CCCCN)NC(=O)[C@H](CO)NC(=O)[C@H](CC(C)C)NC(=O)[C@H](CC(=O)O)NC(=O)[C@H](CO)NC(=O)[C@@H](NC(=O)[C@H](Cc1ccccc1)NC(=O)[C@@H](NC(=O)CNC(=O)[C@H](CCC(N)=O)NC(=O)C1(NC(=O)[C@@H](N)Cc2c[nH]cn2)CCC1)[C@@H](C)O)[C@@H](C)O)C(=O)N[C@@H](CCCNC(=N)N)C(=O)N[C@@H](CCCNC(=N)N)C(=O)N[C@@H](C)C(=O)N[C@@H](CCCNC(=N)N)C(=O)N[C@@H](CCC(=O)O)C(=O)N[C@@H](Cc1ccccc1)C(=O)N[C@H](C(=O)N[C@@H](CCC(N)=O)C(=O)N[C@@H](Cc1c[nH]c2ccccc12)C(=O)N[C@@H](CC(C)C)C(=O)N[C@@H](CC(C)C)C(=O)N[C@@H](CCCCNC(=O)CC[C@H](NC(=O)CC[C@H](NC(=O)COCCOCCNC(=O)COCCOCCNC(=O)CC[C@H](NC(=O)CC[C@H](NC(=O)CCCCCCCCCCCCCCCCC(=O)O)C(=O)O)C(=O)O)C(=O)O)C(=O)O)C(=O)N[C@H](C(N)=O)[C@@H](C)O)C(C)C [Example 49, N^ε28-[(4S)-4-carboxy-4-[[(4S)-4-carboxy-4-[[2-[2-[2-[[2-[2-[2-[[(4S)-4-carboxy-4-[[(4S)-4-carboxy-4-(17-carboxyheptadecanoylamino)butanoyl]amino]butanoyl]amino]ethoxy]ethoxy]acetyl]amino]ethoxy]ethoxy]acetyl]amino]butanoyl]amino]butanoyl]-[Acb2,Leu10,Leu16,Arg20,Glu21,Leu27,Lys28]-Glucagon amide] (H-H[Ac4c]QGTFTSDLSKYLDLRRAREFVQWLLK([γGlu-γGlu-AEEA-AEEA-γGlu-γGlu-C18 diacid])T-NH2; N-terminus assumed) |
